Entries after “also recorded” stand apart in the source; their conditions may differ.
Key:
[1] = tested on: leukemia cells on OP9 cells; test: Coculture pulse treatment experiment; assay type: cell-based, murine; settings: 24 hours at Day 1 or Day 4 post LSC plating
Method: (§1) 13,500 GFP+ OP9 cells were plated onto gelatin coated, 96 well black, clear bottom plates (3904, Corning). 24 hours later, 2,000 sorted leukemia cells were plated onto the monolayer. Compounds (5 μM) were added either 1 (early pulse) or 4 (late pulse) days later at the same 5 μM working concentration of main coculture screen. In both cases, compounds were removed after 24 hours of treatment, the wells were washed, and fresh media without compound was added. The plates were imaged and analyzed 6 days after leukemia cell plating. The viability of the stroma was assessed using stromal monolayers grown alone and treated in parallel, with the same readout described in the stromal toxicity screen above.

CD45.1+ HSPCs = tested on: CD45.1+ HSPCs; set-up: species or system mice; settings: mouse, in vivo
Method: Heterotypic cocultures containing dsRed+ LSCs, CD45.1+ HSPCs, and GFP+ MSCs were exposed to compounds for 48 hours, then transplanted en masse post trypsinization with untreated wild-type helper splenocytes (CD45.1+CD45.2+) into lethally irradiated, wildtype recipient animals (CD45.2+). Latency of leukemia onset was compared for mice receiving cocultures treated with compound compared to DMSO control treated cocultures. The engraftment of the normal HSPCs treated and injected along with the leukemia cells was quantified by FACs analysis of the bone marrow of mice alive at the 16 week endpoint across treatments.
As in vivo readouts may better reflect hematopoietic stem cell function compared to in vitro readouts (Purton, L. E., and Scadden, D. T. (2007). Cell Stem Cell 1, 263-270.; Bock, T. A. (1997). Stem Cells 15 Suppl 1, 185-195.), our results were confirmed using murine transplantation studies. […] Compounds that increase disease latency relative to DMSO control are considered active. […] Bone marrow repopulating ability is a functional measure of normal HSPCs, assessed by quantifying long-term engraftment and differentiation patterns in recipient mice (Bock, T. A. (1997). Stem Cells 15 Suppl 1, 185-195.; Nguyen, L. V., Vanner, R., Dirks, P., and Eaves, C. J. (2012). Nat Rev Cancer 12, 133-143.). […]

OP9 stromal monolayers = test: Stromal viability in pulse treatment experiment (CellTiter-Glo); assay type: cell-based, murine; settings: compared to DMSO control
Method: OP9 or MSCs were plated in white, 384 well plates (3570, Corning) and 24 hours later compounds were added in 8-point dose as described. Three days later the plates were put out to cool to room temperature, the cultures were aspirated, and 50 μl of CellTiterGlo reagent (G7570, Promega) diluted 1:3 in PBS was added to each well. The plates were covered and placed on an orbital shaker for 20 minutes then analyzed using either an LJL Analyst (LJL) or Envision (Perkin Elmer).
as §1

[2] = tested on: primary CD34+ cells from normal human cord blood; test: Human CD34+ CAFC assay, normal cells; settings: 1.25 μM to 10 μM, 18 hours exposure
Method: Samples were centrifuged over Ficoll-Paque PLUS (GE Heathcare) step gradient (2000×g for 30 min in 50 ml tubes) to obtain mononuclear cells and then CD34^+ cells were selected with immunomagnetic beads (MACS Cell Separation, Miltenyi Biotec, Auburn, Calif.), except in one case, NPM1 mutation, which was CD34^− by flow cytometry and mononuclear cells were used. 50,000 cells were placed into 12.5 cm^2 flasks (Becton Dickinson Labware, Franklin Lakes, N.J.) in co-culture with the MS-5 mouse bone marrow-derived stromal cell line (kindly provided by Dr. Itoh, Dept. of Biology, Niigata University, Japan) and DMSO control and the number of final cobblestones was later read. The number of cells needed to form one cobblestone was then placed in triplicate for each sample with each drug at serial drug dilutions from 10 μM to 0.63 μM as well as with DMSO 0.5% for control purposes and incubated overnight with Iscove's modified Dulbecco's medium (IMDM, in house media preparation laboratory)+20% fetal calf serum (FCS, Atlanta Biologicals, Lawrenceville, Ga.) with glutamine (2 mM/ml, in house media preparation laboratory), monothioglycerol (MTG, 10 nM/ml, Sigma Cell Culture, St. Louis Mo.), c-Kit ligand (20 ng/ml, Amgen, Thousand Oaks, Calif.), Flt ligand (20 ng/ml, Imclone, Bridgewater, N.J.), TPO (20 ng/ml, Amgen) and IL-3 (20 ng/ml, Amgen). […]
The cells were treated with compound or DMSO carrier control at four doses (ranging from 1.25 μM to 10 μM) in triplicate for 18 hours, washed thoroughly, then plated onto human stromal MS-5 monolayers (Itoh, K., Tezuka, H., Sakoda, H., Konno, M., Nagata, K., Uchiyama, T., Uchino, H., and Mori, K. J. (1989). Exp Hematol 17, 145-153.) and maintained in coculture with one subsequent half media change. After 5 weeks (2 weeks for the FLT3-ITD sample (Moore, M. A., Dorn, D. C., Schuring a, J. J., Chung, K. Y., and Morrone, G. (2007). Exp Hematol 35, 105-116.)), cobblestone formation was determined, and dose-response curves against the 7 cell types were generated for each compound.

primary leukemia cells = test: Gene expression profiling with GSEA; assay type: cell-based, murine; settings: 5 μM, 6 hours in suspension
Method: To elucidate potential cell-autonomous effects of BRD7116, primary leukemia cells were exposed to either 5 μM BRD7116 or DMSO vehicle for 6 hours in suspension in IMDM (12440053, Invitrogen) with 10% FBS, 10 ng/ml mIL3, and 1× Pen-Strep.
RNA was isolated using a trizol-chloroform protocol or with a Qiagen RNeasy kit (74104, Qiagen). Total RNA from the samples was normalized to 20 ng/μl and the Illumina® TotalPrep™-96 RNA Amplification Kit (Applied Biosystems, PN #4393543) protocol was used for amplification in a semi automated process. The total RNA underwent reverse transcription to synthesize first-strand cDNA. This cDNA was then converted into a double-stranded DNA template for transcription. In vitro transcription synthesized aRNA and incorporated a biotin-conjugated nucleotide. […] Illumina's BeadArray Reader was used to measure the fluorescence intensity at each addressed bead location.
Gene-expression profiles were generated by using mouse ref-8 DNA microarray (Illumina) according to manufacturer's instruction. […] The resulting data was analyzed using Gene Set Enrichment Analysis method (Subramanian, A., Tamayo, P., Mootha, V. K., Mukherjee, S., Ebert, B. L., Gillette, M. A., Paulovich, A., Pomeroy, S. L., Golub, T. R., Lander, E. S., et al. (2005). Proc Natl Acad Sci USA 102, 15545-15550.). […]

[3] = tested on: leukemic cobblestoning on pretreated OP9 stromal cells; test: Stromal pretreatment screen on OP9 stroma; assay type: cell-based, murine; settings: compound on OP9 stroma for 3 days, washed before LSC plating
Method: OP9 cells were plated as in the primary screen. 24 hours later compounds were added to the stromal cultures and the plates were incubated for three days. […] As before, the plates were imaged after 6 days of coculture, and the level of cobblestoning was quantified. Any inhibition of cobblestoning observed under these modified assay conditions would presumably be due to the activity of the compound on the niche, and would allow the analysis of cell non-cell-autonomous mechanisms of leukemia growth inhibition.

Row | SMILES | leukemia cells at Day 6 endpoint after 24 hour pulse [1] | leukemia cells at Day 6 endpoint after 24 hour pulse ([1]; listed as lovastatin) | differentiation patterns of engrafted HSPCs (CD45.1+ HSPCs) | stromal viability after 24 hour pulse (CellTiter-Glo) (OP9 stromal monolayers) | toxicity against normal primary CD34+ cells (human CAFC) [2] | gene expression changes (GSEA) (primary leukemia cells) | leukemic cobblestoning after stromal pretreatment [3]
1 | CCC(C)C(=O)OC1CC(C)C=C2C=CC(C)C(CCC(O)CC(O)CC(=O)O)C21 (stereo not shown) [Lovastatic acid] | strong inhibition of leukemia cells | near-complete loss of leukemia cells | normal differentiation patterns | no effect on stromal viability | neither compound showed toxicity | – | –
2 | CC1(C)C(C(=O)Nc2ccc(S(=O)(=O)c3ccc(NC(=O)C4C(C)(C)C4(C)C)cc3)cc2)C1(C)C [BRD7116] | – | – | – | – | – | induces an AML differentiation program; also recorded: induction of an AML differentiation program | decreased leukemic cobblestoning; also recorded: partially recapitulated the leukemia cobblestone inhibition
